For one experiment, the target named is T1, JAK3 kinase domain (JH1) (Homo sapiens, UniProt P52333).
T1 construct: recombinant purified His or GST-tagged catalytic domain for each enzyme; purchased Carna biosciences 08-046
The experiment in a line: HTRF-based selectivity assay, JAK3 catalytic domain. Format: biochemical. Particulars: recombinant catalytic domain, ATP 2.12 μM. The method, then: (§1) Example B-2: HTRF-Based Selectivity Assay
(§2) The ability of compounds to inhibit the activity of JAK1, JAK2, JAK3 and TYK2 is measured using a recombinant purified His or GST-tagged catalytic domain for each enzyme (JAK1, JAK2 and TYK2 are generated in-house; JAK3 was purchased from Carna biosciences, Cat #08-046) in an HTRF format biochemical assay. The reactions employs a commercial peptide substrate from Cisbio (Cat #62TK0PEC). The basic assay protocol is as follows: first, 2.5 μL of diluted compounds (4×) in DMSO are dispensed into a 384-well Optiplate. Next, 2.5 μL of enzyme (final concentrations for enzymes are: TYK2—700 ng/mL, JAK1—80.6 ng/mL, JAK2—2.1 ng/mL and JAK3—171.8 ng/mL) is added and incubated at RT for 5-20 min. Finally, 5 μl of mixture of 2× ATP [Final concentration 20 μM for TYK2, 21.43 μM for JAK1, 14.7 μM for JAK2 and 2.12 μM for JAK3]+2× Substrate [Final concentration 217 nM for TYK2, 454.7 nM for JAK1, 200 nM for JAK2 and 257.4 nM for JAK3] is added to 384 well Optiplate. Composition of Kinase assay buffer used in the assay is as follows: HEPES 50 mM, EGTA 1 mM, MgCl2 10 mM, DTT 2 mM, Tween-20 0.01% and water. Then the plates are shaken and then incubated at 26.5° C. for 60 min.

For experiment [1], the system named is HEK-Blue IFNα/β cells (IFNα-stimulated STAT1 SEAP reporter; TYK2 JH2). In words: HEK-Blue IFNα/β SEAP reporter assay for profiling TYK2 pseudokinase (JH2) inhibition. It counts as cell-based. The settings on record: Homo sapiens, HEK-Blue, 1 ng/mL human recombinant IFNα, read-out: IFNα (TYK2 inhibitory activity, IC50). In short, it runs like this:
(§3)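 Cells were pretreated 60 min with serially diluted compounds, then stimulated with 10 ng/mL human IL-23 for 22-24 hours (STAT3 line) or 1 ng/mL human IFNα for 16-18 h (STAT1 line). SEAP induction read with QUANTI-Blue.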

For the next experiment, the target named is T2, TYK2 kinase domain (JH1) (Homo sapiens, UniProt P29597).
T2 construct: recombinant purified His or GST-tagged catalytic domain for each enzyme; made in house
T2 sequence (P29597 897-1176 limits assumed): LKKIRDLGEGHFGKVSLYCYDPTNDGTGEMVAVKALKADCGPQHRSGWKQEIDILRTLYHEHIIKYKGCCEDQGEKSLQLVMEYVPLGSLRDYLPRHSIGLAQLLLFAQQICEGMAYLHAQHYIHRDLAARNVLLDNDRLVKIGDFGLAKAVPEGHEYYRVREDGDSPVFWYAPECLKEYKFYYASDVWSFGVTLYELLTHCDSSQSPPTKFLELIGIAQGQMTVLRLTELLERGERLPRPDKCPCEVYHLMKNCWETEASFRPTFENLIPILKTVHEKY
The experiment in a line: HTRF-based selectivity assay, TYK2 catalytic domain. Format: biochemical. The settings on record: recombinant catalytic domain, ATP 20 μM. The method, then: as §1, §2

The test system of experiment [2] is HEK-Blue IL-2 reporter cells (IL-2-stimulated STAT5 SEAP reporter). The experiment in a line: HEK-Blue IL-2 SEAP reporter assay for determining selectivity. Format: cell-based. Particulars: 4 ng/mL human recombinant IL-2. The method in brief:
(§4)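 Cells were plated for 20-22 h, then pretreated with serially diluted compound for 60 min. They were stimulated for 24 h with 4 ng/mL human recombinant IL-2 or 50 ng/mL human recombinant IFNγ, and SEAP induction was read with QUANTI-Blue.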

Another experiment has as its target T3, JAK2 kinase domain (JH1) (Homo sapiens, UniProt O60674).
T3 construct: recombinant purified His or GST-tagged catalytic domain for each enzyme; made in house
In words: HTRF-based selectivity assay, JAK2 catalytic domain. The settings on record: recombinant catalytic domain, ATP 14.7 μM. It counts as biochemical. How it is done: as §1, §2

Experiment [3] concerns HEK-Blue IL-23 cells (IL-23-stimulated STAT3 SEAP reporter; TYK2 JH2). The experiment in a line: HEK-Blue IL-23 SEAP reporter assay for profiling TYK2 pseudokinase (JH2) inhibition. It counts as cell-based. Particulars: 10 ng/mL human recombinant IL-23, SEAP reporter, read-out: IL23 (TYK2 inhibitory activity, IC50). In short, it runs like this: as §3
A further experiment concerns the target T4, JAK1 kinase domain (JH1) (Homo sapiens, UniProt P23458).
T4 construct: recombinant purified His or GST-tagged catalytic domain for each enzyme; made in house
In words: HTRF-based selectivity assay, JAK1 catalytic domain. The settings on record: recombinant catalytic domain, ATP 21.43 μM. It counts as biochemical. The method, then: as §1, §2

Experiment [4] relates to HEK-Blue IFNγ reporter cells (IFNγ-stimulated STAT1 SEAP reporter). The experiment in a line: HEK-Blue IFNγ SEAP reporter assay for determining selectivity. Format: cell-based. Particulars: Homo sapiens, HEK-Blue, 50 ng/mL human recombinant IFNγ, read-out: IFN-γ (SEAP selectivity, IC50). In short, it runs like this:
as §4

T3 sequence (O60674 849-1124 limits assumed): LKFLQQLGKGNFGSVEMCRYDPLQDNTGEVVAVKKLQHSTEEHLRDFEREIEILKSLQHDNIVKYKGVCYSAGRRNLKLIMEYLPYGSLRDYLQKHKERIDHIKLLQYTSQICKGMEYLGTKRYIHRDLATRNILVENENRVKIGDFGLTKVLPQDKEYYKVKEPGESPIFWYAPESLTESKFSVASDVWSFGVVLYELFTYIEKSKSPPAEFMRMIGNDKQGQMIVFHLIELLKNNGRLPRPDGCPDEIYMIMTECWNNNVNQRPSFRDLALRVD
T1 sequence (P52333 822-1111 limits assumed): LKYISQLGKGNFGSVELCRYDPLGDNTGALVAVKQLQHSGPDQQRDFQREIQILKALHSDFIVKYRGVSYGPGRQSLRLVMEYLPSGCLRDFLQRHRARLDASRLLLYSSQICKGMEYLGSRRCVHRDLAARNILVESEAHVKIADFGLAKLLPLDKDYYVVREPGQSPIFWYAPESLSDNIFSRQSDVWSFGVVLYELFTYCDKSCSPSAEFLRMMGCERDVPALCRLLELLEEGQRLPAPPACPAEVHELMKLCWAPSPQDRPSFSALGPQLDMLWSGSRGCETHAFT
T4 sequence (P23458 875-1153 limits assumed): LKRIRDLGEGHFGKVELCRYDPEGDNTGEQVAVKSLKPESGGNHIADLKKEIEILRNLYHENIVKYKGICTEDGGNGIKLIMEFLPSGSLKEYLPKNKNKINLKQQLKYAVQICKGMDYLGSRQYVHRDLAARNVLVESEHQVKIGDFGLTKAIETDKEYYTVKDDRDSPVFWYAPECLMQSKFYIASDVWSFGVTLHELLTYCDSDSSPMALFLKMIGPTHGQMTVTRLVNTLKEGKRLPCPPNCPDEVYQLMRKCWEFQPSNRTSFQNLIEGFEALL

Consider `[2H]C([2H])([2H])NC(=O)c1nnc(NC(=O)[C@H]2C[C@H]2F)cc1Nc1cccc2c1N(C)Cc1nc(C)nn1-2` (single isomer, unassigned) [Compound 8], for which the IC50 at JAK3 kinase domain (JH1) is > 1000 nM; in experiment [1] it was 30 to 300 nM; on TYK2 kinase domain (JH1), > 1000 nM; in experiment [2] it was > 1000 nM; on JAK2 kinase domain (JH1) it was > 1000 nM; in experiment [3] it was < 30 nM. In addition, on JAK1 kinase domain (JH1), the IC50 was > 1000 nM.
On to `[2H]C([2H])([2H])NC(=O)c1nnc(Nc2ccc(C(F)(F)F)cn2)cc1Nc1cccc2c1N(C)Cc1nc(C)nn1-2` [Compound 10, 4-((2,5-dimethyl-4,5-dihydro-[1,2,4]triazolo[1,5-a]quinoxalin-6-yl)amino)-N-(methyl-d3)-6-((5-(trifluoromethyl)pyridin-2-yl)amino)pyridazine-3-carboxamide], for which the IC50 on JAK3 kinase domain (JH1) is > 1000 nM; in experiment [1] it was 30 to 300 nM; on TYK2 kinase domain (JH1), > 1000 nM; in experiment [2] it was > 1000 nM; on JAK2 kinase domain (JH1) it was > 1000 nM; in experiment [3] it was < 30 nM. Further, the IC50 at JAK1 kinase domain (JH1) was > 1000 nM.
As to `[2H]C([2H])([2H])NC(=O)c1nnc(Nc2ccc(C)cn2)cc1Nc1cccc2c1N(C)Cc1nc(C)nn1-2` [Compound 11, 4-((2,5-dimethyl-4,5-dihydro-[1,2,4]triazolo[1,5-a]quinoxalin-6-yl)amino)-N-(methyl-d3)-6-((5-methylpyridin-2-yl)amino)pyridazine-3-carboxamide], the IC50 at JAK3 kinase domain (JH1) was > 1000 nM; in experiment [1], < 30 nM; at TYK2 kinase domain (JH1) it was > 1000 nM; at JAK2 kinase domain (JH1) it was > 1000 nM; in experiment [3], < 30 nM; on JAK1 kinase domain (JH1), > 1000 nM.
As to `[2H]C([2H])([2H])NC(=O)c1nnc(Nc2ccc(F)cn2)cc1Nc1cccc2c1N(C)Cc1nc(C)nn1-2` [Compound 12, 4-((2,5-dimethyl-4,5-dihydro-[1,2,4]triazolo[1,5-a]quinoxalin-6-yl)amino)-6-((5-fluoropyridin-2-yl)amino)-N-(methyl-d3)pyridazine-3-carboxamide], the IC50 was > 1000 nM on JAK3 kinase domain (JH1); < 30 nM in experiment [1]; > 1000 nM at TYK2 kinase domain (JH1); 30 to 300 nM in experiment [2]; > 1000 nM on JAK2 kinase domain (JH1); < 30 nM in experiment [3]. Further, at JAK1 kinase domain (JH1), the IC50 is > 1000 nM.
With `[2H]C([2H])([2H])NC(=O)c1nnc(NC(=O)C2CC2)cc1Nc1cccc2c1N(C)Cc1nn(C)nc1-2` [Compound 46, 6-(cyclopropanecarboxamido)-4-((2,5-dimethyl-4,5-dihydro-2H-[1,2,3]triazolo[4,5-c]quinolin-6-yl)amino)-N-(methyl-d3)pyridazine-3-carboxamide], the IC50 is 30 to 300 nM in experiment [4]; > 1000 nM at JAK3 kinase domain (JH1); < 30 nM in experiment [1]; > 1000 nM in experiment [2]; > 1000 nM on JAK2 kinase domain (JH1); < 30 nM in experiment [3]. The IC50 at JAK1 kinase domain (JH1) is > 1000 nM.
For the compound `[2H]C([2H])([2H])NC(=O)c1cnc(NC(=O)C2CC2)cc1Nc1cccc2c1N(C)CCn1cnnc1-2` [Compound 78, 6-(cyclopropanecarboxamido)-N-(methyl-d3)-4-((7-methyl-6,7-dihydro-5H-benzo[f][1,2,4]triazolo[4,3-d][1,4]diazepin-8-yl)amino)nicotinamide], the IC50 at JAK3 kinase domain (JH1) was > 1000 nM; in experiment [1], > 1000 nM; at TYK2 kinase domain (JH1), > 1000 nM; at JAK2 kinase domain (JH1) it was > 1000 nM; in experiment [3] it was 30 to 300 nM; at JAK1 kinase domain (JH1), > 1000 nM.
Consider `[2H]C([2H])([2H])NC(=O)c1nnc(NC(=O)C2CC2)cc1Nc1nccc2c1N(C)Cc1nn(C)nc1-2` [Compound 88, 6-(cyclopropanecarboxamido)-4-((2,5-dimethyl-4,5-dihydro-2H-[1,2,3]triazolo[4,5-c][1,7]naphthyridin-6-yl)amino)-N-(methyl-d3)pyridazine-3-carboxamide], for which the IC50 in experiment [4] is 30 to 300 nM; in experiment [1] it was < 30 nM; on TYK2 kinase domain (JH1), > 1000 nM; in experiment [2], 300 to 1000 nM; at JAK2 kinase domain (JH1) it was > 1000 nM; in experiment [3], < 30 nM. Also, the IC50 on JAK1 kinase domain (JH1) is > 1000 nM.

The record behind these values is US12084458B2, “Substituted pyridines, pyridazines, and pyrimidines as TYK2 inhibitors” (Sudo Biosciences Limited, priority 2021, dated 2024).
